Broadly, the inhibition is the relative decrease from the control value, in per cent. The IC50 is the concentration needed to halve the response being measured.

The source made the active and inactive calls. The calls are words filed in the database; no cut-off is given here.

This passage reports inhibition, IC50 and K0.5 results from ChEMBL document CHEMBL4433199, “First-in-class allosteric inhibitors of bacterial IMPDHs” (Eur J Med Chem, 2019).

For assay [1], the target named is T1, Inosine-5'-monophosphate dehydrogenase (Pseudomonas aeruginosa (strain ATCC 15692 / DSM 22644 / CIP 104116 / JCM14847 / LMG 12228 / 1C / PRS 101 / PAO1)) (UniProt Q9HXM5).
T1 sequence (whole entry): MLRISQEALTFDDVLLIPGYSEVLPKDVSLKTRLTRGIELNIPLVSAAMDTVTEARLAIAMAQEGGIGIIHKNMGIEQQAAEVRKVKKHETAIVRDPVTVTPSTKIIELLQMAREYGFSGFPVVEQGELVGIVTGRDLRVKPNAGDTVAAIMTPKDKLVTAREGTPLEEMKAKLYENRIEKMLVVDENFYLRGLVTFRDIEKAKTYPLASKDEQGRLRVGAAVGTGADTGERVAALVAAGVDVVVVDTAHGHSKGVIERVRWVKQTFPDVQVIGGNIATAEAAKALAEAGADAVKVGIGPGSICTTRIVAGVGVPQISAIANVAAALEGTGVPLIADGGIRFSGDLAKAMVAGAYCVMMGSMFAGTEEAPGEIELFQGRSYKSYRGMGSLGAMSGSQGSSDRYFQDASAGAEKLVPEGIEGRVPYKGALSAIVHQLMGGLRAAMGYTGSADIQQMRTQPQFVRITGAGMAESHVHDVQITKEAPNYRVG
Put plainly: Inhibition of Pseudomonas aeruginosa IMPDH at 43.4 uM using IMP as substrate in the presence of NAD+ incubated for 70 secs relative to control.

Assay [2] deals with T2, Inosine-5'-monophosphate dehydrogenase (Pseudomonas aeruginosa (strain ATCC 15692 / DSM 22644 / CIP 104116 / JCM14847 / LMG 12228 / 1C / PRS 101 / PAO1), UniProt Q9HXM5).
T2 sequence (Q9HXM5 whole entry): T1 sequence (whole entry)
The experiment in a line: Inhibition of Pseudomonas aeruginosa IMPDH using IMP as substrate in the presence of NAD+ incubated for 70 secs.

Assay [3] deals with T1, Inosine-5'-monophosphate dehydrogenase (Pseudomonas aeruginosa (strain ATCC 15692 / DSM 22644 / CIP 104116 / JCM14847 / LMG 12228 / 1C / PRS 101 / PAO1)). The experiment in a line: Non-competitive inhibition of Pseudomonas aeruginosa IMPDH using IMP as substrate and NAD+ in presence of ATP incubated for 70 secs.
Assay [4] shares this target. Put plainly: Inhibition of Pseudomonas aeruginosa IMPDH at 49.8 uM using IMP as substrate in the presence of NAD+ incubated for 70 secs relative to control.
The target is the same in assay [5]. Put plainly: Inhibition of Pseudomonas aeruginosa IMPDH at 35.1 uM using IMP as substrate in the presence of NAD+ incubated for 70 secs relative to control.
Assay [6] has the same target. The experiment in a line: Competitive inhibition of Pseudomonas aeruginosa IMPDH using IMP as substrate at varying levels and NAD+ in presence of ATP incubated for 70 secs.
Assay [7] shares this target. The experiment in a line: Inhibition of Pseudomonas aeruginosa IMPDH at 46.2 uM using IMP as substrate in the presence of NAD+ incubated for 70 secs relative to control.
Assay [8] shares this target. Put plainly: Inhibition of Pseudomonas aeruginosa IMPDH assessed as Km for IMP at 20 uM using IMP as substrate in presence of 2 mM NAD+ and 0.2 mM MgATP (reference value: 483 +/- 65 microM).
Assay [9] shares this target. The experiment in a line: Competitive inhibition of Pseudomonas aeruginosa IMPDH using IMP as substrate and NAD+ in presence of varying ATP incubated for 70 secs.
Assay [10] shares this target. The experiment in a line: Inhibition of Pseudomonas aeruginosa IMPDH at 47.2 uM using IMP as substrate in the presence of NAD+ incubated for 70 secs relative to control.
Assay [11] shares this target. The experiment in a line: Inhibition of Pseudomonas aeruginosa IMPDH at 48.2 uM using IMP as substrate in the presence of NAD+ incubated for 70 secs relative to control.
The target is the same in assay [12]. The experiment in a line: Inhibition of Pseudomonas aeruginosa IMPDH at 39.6 uM using IMP as substrate in the presence of NAD+ incubated for 70 secs relative to control.
The target is the same in assay [13]. Put plainly: Inhibition of Pseudomonas aeruginosa IMPDH at 38.5 uM using IMP as substrate in the presence of NAD+ incubated for 70 secs relative to control.
For assay [14] the target is unchanged. The experiment in a line: Inhibition of Pseudomonas aeruginosa IMPDH at 40 uM using IMP as substrate in the presence of NAD+ incubated for 70 secs relative to control.
The target is the same in assay [15]. The experiment in a line: Inhibition of Pseudomonas aeruginosa IMPDH at 40.7 uM using IMP as substrate in the presence of NAD+ incubated for 70 secs relative to control.
For assay [16] the target is unchanged. The experiment in a line: Inhibition of Pseudomonas aeruginosa IMPDH at 50.8 uM using IMP as substrate in the presence of NAD+ incubated for 70 secs relative to control.
For assay [17] the target is unchanged. The experiment in a line: Inhibition of Pseudomonas aeruginosa IMPDH at 42.9 uM using IMP as substrate in the presence of NAD+ incubated for 70 secs relative to control.

Consider `O=C(CCS(=O)(=O)c1ccc2c(c1)SCC(=O)N2)NCCCc1ccccc1`, for which the inhibition in assay [1] was found to be 76.7%. The IC50 in assay [2] (read-out: IC50) was determined as 3.1 µM. The inhibition entry in assay [3] is “Active”.
As for `COc1ccc(-n2c(=O)[nH]cc(C(=O)Nc3cc(C)ccc3C)c2=O)cc1`, in [4], the inhibition turned out to be 108%. Also, the IC50 entry in assay [2] was “Not Active”.
In the case of `Cc1cc2c(C(C)C)c(O)c(O)c(C=O)c2c(O)c1-c1c(C)cc2c(C(C)C)c(O)c(O)c(C=O)c2c1O` [GOSSYPOL], the inhibition in assay [5] was 100%. Besides, in [2] (read-out: IC50), the IC50 was found to be 0.9 µM. Besides, the inhibition result in assay [6] is “Active”.
`CCOc1ccc(-c2cc(C(=O)O)nc3[nH]nc(-c4ccc(Cl)cc4)c23)cc1`: the inhibition in assay [7] was 73%. Also, the K0.5 in assay [8] was 616 µM. Further, the IC50 in [2] (read-out: IC50) amounted to 18.3 µM. For the same molecule, in assay [9], the inhibition entry was “Active”.
Consider `CC(=O)N1CCOc2cc(S(=O)(=O)Nc3ccc(F)c(Cl)c3)ccc21`, for which the K0.5 in assay [8] worked out at 747 µM. Further, the inhibition in assay [10] came out at 81.5%. Also, the IC50 in assay [2] (read-out: IC50) is 17.1 µM. In assay [9], the inhibition result is “Active”.
Consider `Cc1ccc(-n2c(=O)[nH]cc(C(=O)Nc3ccc(C(C)C)cc3)c2=O)cc1C`, for which the inhibition in assay [11] was 75.4%. In addition, the IC50 entry in assay [2] is given as “Not Active”.
On to `COc1ccc(-c2cc(C(=O)O)nc3[nH]nc(-c4ccc(C)cc4)c23)cc1Br`, for which the inhibition in assay [12] is 83.1%. Besides, in assay [2] (read-out: IC50), the IC50 came to 11.7 µM. Also, the inhibition result in assay [9] is “Active”.
With `COc1ccc(CCNc2nc3cc(Cl)c(Cl)cc3nc2-n2nc(C)cc2C)cc1OC`, the inhibition stood at 77.8% in assay [13] and 20% in assay [14].
With `O=C(O)c1cc(-c2cc(Br)ccc2F)c2c(-c3ccc(Cl)cc3)n[nH]c2n1`, the inhibition in assay [15] is 71.6%. For the same molecule, the IC50 in assay [2] (read-out: IC50) is 7.4 µM. Besides, in assay [9], the inhibition result is “Active”.
In the case of `COc1ccccc1-c1noc(CCC(=O)Nc2ccc(Cl)cc2)n1`, the inhibition in [16] was 70.6%. For the same molecule, the IC50 in [2] (read-out: IC50) was determined as 2.6 µM. Further, the inhibition entry in assay [3] was “Active”.
`CCc1oc2ccccc2c1C(=O)c1cc(Br)c(O)c(Br)c1` [BENZBROMARONE]: in assay [17], the inhibition was found to be 73.3%. In addition, in [2] (read-out: IC50), the IC50 came to 55 µM.
